EP2785358B1, “INSULIN-MIMETICS AS THERAPEUTIC ADJUNCTS FOR BONE REGENERATION” (priority 2011, dated 2013)
Several values for one entry are separate records, joined by “and”; a condition that tells them apart may be missing. Identical values can stand only once. Like-named read-outs stand apart in the source and are kept apart here. Marks after values point to notes of the source that are not given here.

How the values were obtained:
femur fractures [1] = settings: no carrier
Experimental: Under the same anesthesia as described above, the rats were positioned prone and lateral and anteroposterior (AP) radiographs of their femurs were obtained. […] Exposures were for 30 seconds at 55 kVp. Magnified radiographs were obtained of resected femurs. Qualitative analysis was performed on all radiographic sample at four weeks post-fracture. […] Treatment group averages were computed to estimate healing at 4 weeks post-fracture.

[2] = rat, in vivo
Experimental: Doses of ZnCl2 were not based on each animal's body weight, but on a lower theoretically tolerable dose for a 290-gram BB Wistar rat, which would not elicit heavy metal poisoning or behavioral changes. […] A 0.1 ml volume of the ZnCl2 solution was administered locally via a single injection into the marrow space for each dose examined.
However, animals amongst treatment groups were age and sex matched for each experiment.

femur fractures [3] = tested on: femur fractures; parameters: Percent Effective Shear Modulus / Percent Effective Shear Stress: scale not given: direction of the effect not stated beside the values; settings: for Effective Shear Modulus / Effective Shear Stress / Maximum Torque to Failure / Maximum Torsional Rigidity / Percent Effective Shear Modulus / Percent Effective Shear Stress / Percent Maximum Torque to Failure / Percent maximum torsional rigidity: no carrier, 4 weeks post-fracture; for effective shear stress, times higher than control: four weeks post-fracture
Experimental: Zinc Chloride [(ZnCl2), Sigma Aldrich, St. Louis, MO] mixed with a buffer was injected into the intramedullary canal prior to fracture. The buffer consisted of sodium acetate, sodium chloride methyl hydroxybenzoate, and zinc chloride. Doses of 1.0 mg/kg and 3.0 mg/kg zinc chloride were tested and administered at a volume of 0.1mL.
Fractured and contralateral femora were resected at three and four weeks post-fracture. Femora were cleaned of soft tissue and the intramedullary rod was removed. Samples were wrapped in saline (0.9% NaCl) soaked gauze and stored at -20 °C. Prior to testing, all femora were removed from the freezer and allowed to thaw to room temperature for three to four hours. The proximal and distal ends of the fractured and contralateral femora were embedded in ¾ inch square nuts with Field's Metal, leaving an approximate gauge length of 18 mm (Figure 2). After measuring callus, gauge length and femur dimensions, torsional testing was conducted using a servohydraulics machine (MTS Systems Corp., Eden Prairie, MN) with a 20 Nmm reaction torque cell (Interface, Scottsdale, AZ) and tested to failure at a rate of 2.0 deg/sec. The maximum torque to failure and angle to failure were determined from the force to angular displacement data.
Maximum torque to failure and maximum torsional rigidity are considered extrinsic properties while shear modulus and maximum shear stress are considered intrinsic properties. […] Maximum torsional rigidity is a function of the maximum torque to failure, gauge length (distance of the exposed femur between the embedded proximal and distal end) and angular displacement. Maximum shear stress is a function of the maximum torque to failure, maximum radius within the mid-diaphyseal region and the polar moment of inertia. The polar moment of inertia was calculated by modeling the femur as a hollow ellipse.
In order to compare the biomechanical parameters between different treatment groups, the data was normalized by dividing each fractured femur value by its corresponding intact, contralateral femur value (Figure 2). Normalization was used to minimize biological variability due to differences in age and weight among rats.
Zinc chloride (ZnCl2), Sigma Aldrich, St. Louis, MO, mixed with sterile water at various doses with or without a calcium sulfate carrier, were injected into the intramedullary canal prior to fracture. Doses of ZnCl2 were not based on each animal's body weight, but on a lower theoretically tolerable dose for a 290-gram BB Wistar rat, which would not elicit heavy metal poisoning or behavioral changes. This weight is over 50 grams lower than the average weight of non-diabetic BB Wistar rats at an age of approximately 90 days (the age of investigation in this study).

femur fractures [4] = settings: zinc chloride 3.0 mg/kg
Description: The fractured femora were resected at seven days post-fracture, decalcified, dehydrated, embedded in paraffin, and sectioned using standard histological techniques. Sections were stained with Masson's Trichrome (Accustain™ Trichrome Staining kit, Sigma Diagnostics, St. Louis, MO) for histological observation using an Olympus BH2-RFCA microscope (Olympus Optical Co., Ltd., Shinjuku-ku, Tokyo, Japan). Digital images were collected using a Nikon DXM1200F digital camera (Nikon, Tokyo, Japan). Cartilage, new bone, and total callus area were measured from the digital images using Image-Pro Plus software (version 5, Media Cybernetics, Inc., Silver Spring, MD). Total cartilage and new bone area were normalized to total callus area and expressed as the percent area. Two independent reviewers were used to minimize inconsistencies.
This includes dehydration, soaking in Xylenes, and finally pre-embedding in a layer of Polymethylmethacrylate (PMMA). After embedding in pure PMMA and allowed to solidify in a hot water bath, slides were sectioned from the PMMA blocks, polished, and stained with a combination of Stevenel's blue and Van Gieson picro-fuchsin (SVG). Histological images of fracture calluses were obtained using an Olympus SZX12 upright microscope (Olympus Optical Co, LTD, Japan) connected via a CCD camera (Optronics, Goleta, California) to a personal computer and analyzed with the Bioquant software package (Biometrics, Inc, Nashville, TN). Parameters that were compared include a) callus area, b) percent calcified tissue area, and c) percent cartilage area. Limitations of this procedure include production of slides with high thicknesses, due to the difficulties associated with sectioning PMMA. This limits the number of possible sections that may be cut for staining in addition to analysis of cellular morphology, due to overlapping layers of cells.

[5] = ZnCl2 0.1 mg/kg local, normalized to intact femur
[6] = ZnCl2 1.0 mg/kg local, normalized to intact femur
[7] = ZnCl2 3.0 mg/kg local, normalized to intact femur, 3 mg/kg
[8] = ZnCl2 3 mg/kg, four weeks, normalized to intact femur, 3 mg/kg
[9] = ZnCl2 6.0 mg/kg local, normalized to intact femur
[10] = ZnCl2 10.0 mg/kg local, normalized to intact femur

Question: For `[Cl-].[Cl-].[Zn+2]` [ZnCl2, Zinc Chloride], which “Radiographic scoring, 4 Weeks Post-Fracture (# of cortices bridged)” value (femur fractures [1]; ZnCl2 1.0 mg/kg local) is on record?
Answer: 3.0 ± 0.6 (n=3)

Question: And the “Radiographic scoring, 4 Weeks Post-Fracture (# of cortices bridged)” value (femur fractures [1]; ZnCl2 3.0 mg/kg local)?
Answer: 3.3 ± 0.6^∗ (n=3)

Question: And the “% Weight gain” value ([2]; 0.1 mg/kg)?
Answer: 15.3±11.5%

Question: What about the “Blood Glucose 12 Hours Post-Surgery” value ([2]; 0.1 mg/kg) of the same compound?
Answer: 87.0±7.1 ^a mg/dl

Question: And the “% Weight gain” value ([2]; 1 mg/kg)?
Answer: 11.0±9.4%

Question: And the “Blood Glucose 12 Hours Post-Surgery” value ([2]; 1 mg/kg)?
Answer: 99.3±3.1 ^b mg/dl

Question: What about the “% Weight gain” value ([2]; 3 mg/kg) of the same compound?
Answer: 6.9±11.7%

Question: What about the “Blood Glucose 12 Hours Post-Surgery” value ([2]; 3 mg/kg) of the same compound?
Answer: 105.0±4.4 ^b mg/dl

Question: And the “% Weight gain” value ([2]; 6 mg/kg)?
Answer: 4.6±2.3%

Question: What about the “Blood Glucose 12 Hours Post-Surgery” value ([2]; 6 mg/kg) of the same compound?
Answer: 88.0±4.3 ^a mg/dl

Question: And the “% Weight gain” value ([2]; 10 mg/kg)?
Answer: 4.2±2.0%

Question: What about the “Blood Glucose 12 Hours Post-Surgery” value ([2]; 10 mg/kg) of the same compound?
Answer: 87. 7±8. 5 ^a mg/dl

Question: What about the “Effective Shear Modulus” value (femur fractures [3]; ZnCl2 0.1 mg/kg local) of the same compound?
Answer: 1.7×10^3 ± 3.3×10^2 MPa

Question: What about the “Effective Shear Stress” value (femur fractures [3]; ZnCl2 0.1 mg/kg local) of the same compound?
Answer: 61 ± 14 MPa

Question: What about the “Maximum Torque to Failure” value (femur fractures [3]; ZnCl2 0.1 mg/kg local) of the same compound?
Answer: 252 ± 13 Nmm

Question: What about the “Maximum Torsional Rigidity” value (femur fractures [3]; ZnCl2 0.1 mg/kg local) of the same compound?
Answer: 2.1×10^4 ± 4.2×10^3 Nmm^2/rad

Question: And the “Percent Effective Shear Modulus” value (femur fractures [3]; [5])?
Answer: 34 ± 4%

Question: And the “Percent Effective Shear Stress” value (femur fractures [3]; [5])?
Answer: 33 ± 14%

Question: What about the “Percent Maximum Torque to Failure” value (femur fractures [3]; [5]) of the same compound?
Answer: 57 ± 12%

Question: And the “Percent maximum torsional rigidity” value (femur fractures [3]; [5])?
Answer: 87 ± 14%

Question: What about the “Effective Shear Modulus” value (femur fractures [3]; ZnCl2 1.0 mg/kg local) of the same compound?
Answer: 9.7×10^2 ± 3.6×10^2 MPa

Question: What about the “Effective Shear Stress” value (femur fractures [3]; ZnCl2 1.0 mg/kg local) of the same compound?
Answer: 44 ± 15 MPa

Question: And the “Maximum Torque to Failure” value (femur fractures [3]; ZnCl2 1.0 mg/kg local)?
Answer: 281 ± 86 Nmm

Question: What about the “Maximum Torsional Rigidity” value (femur fractures [3]; ZnCl2 1.0 mg/kg local) of the same compound?
Answer: 2.2×10^4 ± 2.7×10^3 Nmm^2/rad

Question: And the “Percent Effective Shear Modulus” value (femur fractures [3]; [6])?
Answer: 32 ± 15%

Question: And the “Percent Effective Shear Stress” value (femur fractures [3]; [6])?
Answer: 18 ± 8%

Question: And the “Percent Maximum Torque to Failure” value (femur fractures [3]; [6])?
Answer: 65 ± 29%

Question: What about the “Percent maximum torsional rigidity” value (femur fractures [3]; [6]) of the same compound?
Answer: 55 ± 14%

Question: And the “effective shear stress, times higher than control” value (femur fractures [3]; ZnCl2 1.0 mg/kg)?
Answer: 1.6 x

Question: And the “Effective Shear Modulus” value (femur fractures [3]; ZnCl2 3.0 mg/kg local)?
Answer: 1.3×10^3 ± 6.4×10^2 MPa

Question: And the “Effective Shear Stress” value (femur fractures [3]; ZnCl2 3.0 mg/kg local)?
Answer: 55 ± 21^∗ MPa

Question: What about the “Maximum Torque to Failure” value (femur fractures [3]; ZnCl2 3.0 mg/kg local) of the same compound?
Answer: 369 ± 74 Nmm

Question: And the “Maximum Torsional Rigidity” value (femur fractures [3]; ZnCl2 3.0 mg/kg local)?
Answer: 3.1×10^4 ± 1.1×10^4 Nmm^2/rad

Question: What about the “Percent Effective Shear Stress” value (femur fractures [3]; ZnCl2 3.0 mg/kg local, normalized to intact femur) of the same compound?
Answer: 27 ± 17%

Question: And the “Percent Effective Shear Modulus” value (femur fractures [3]; [7])?
Answer: 39.0% and 36 ± 10^∗ Percent

Question: What about the “Percent Maximum Torque to Failure” value (femur fractures [3]; [7]) of the same compound?
Answer: 82.0% and 82 ± 25^∗ Percent

Question: And the “Percent maximum torsional rigidity” value (femur fractures [3]; [7])?
Answer: 97.0% and 97 ± 55^∗ Percent

Question: What about the “effective shear stress, times higher than control” value (femur fractures [3]; ZnCl2 3.0 mg/kg) of the same compound?
Answer: 2.2 x

Question: What about the “percent effective shear modulus, times higher than control group” value (femur fractures [3]; [8]) of the same compound?
Answer: 9.0 x and 8.0 x

Question: And the “percent maximum torque to failure, times higher than control group” value (femur fractures [3]; [8])?
Answer: 2.04 x and 2.0 x

Question: And the “percent torsional rigidity, times higher than control group” value (femur fractures [3]; [8])?
Answer: 3.85 x and 3.8 x

Question: And the “Effective Shear Modulus” value (femur fractures [3]; ZnCl2 6.0 mg/kg local)?
Answer: 1.1×10^3 ± 7.5×10^2 MPa

Question: What about the “Effective Shear Stress” value (femur fractures [3]; ZnCl2 6.0 mg/kg local) of the same compound?
Answer: 32 ± 25^∗ MPa

Question: And the “Maximum Torque to Failure” value (femur fractures [3]; ZnCl2 6.0 mg/kg local)?
Answer: 276 ± 190 Nmm

Question: What about the “Maximum Torsional Rigidity” value (femur fractures [3]; ZnCl2 6.0 mg/kg local) of the same compound?
Answer: 2.9×10^4 ± 1.6×10^4 Nmm^2/rad

Question: What about the “Percent Effective Shear Modulus” value (femur fractures [3]; [9]) of the same compound?
Answer: 18 ± 12%

Question: And the “Percent Effective Shear Stress” value (femur fractures [3]; [9])?
Answer: 15 ± 10%

Question: And the “Percent Maximum Torque to Failure” value (femur fractures [3]; [9])?
Answer: 38 ± 20%

Question: And the “Percent maximum torsional rigidity” value (femur fractures [3]; [9])?
Answer: 62 ± 35%

Question: And the “Percent shear modulus, times greater than untreated saline group” value (femur fractures [3]; ZnCl2 10.0 mg/kg (high dose), four weeks, normalized to intact femur)?
Answer: 8.8 times

Question: What about the “Effective Shear Modulus” value (femur fractures [3]; ZnCl2 10.0 mg/kg local) of the same compound?
Answer: 3.0×10^3 ± 1.9×10^3∗ MPa

Question: And the “Effective Shear Stress” value (femur fractures [3]; ZnCl2 10.0 mg/kg local)?
Answer: 62 ± 30 MPa

Question: And the “Maximum Torque to Failure” value (femur fractures [3]; ZnCl2 10.0 mg/kg local)?
Answer: 254 ± 36 Nmm

Question: What about the “Maximum Torsional Rigidity” value (femur fractures [3]; ZnCl2 10.0 mg/kg local) of the same compound?
Answer: 3.6×10^4 ± 2.5×10^4 Nmm^2/rad

Question: And the “Percent Effective Shear Stress” value (femur fractures [3]; [10])?
Answer: 27 ±11%

Question: And the “Percent Maximum Torque to Failure” value (femur fractures [3]; [10])?
Answer: 41 ± 8%

Question: And the “Percent maximum torsional rigidity” value (femur fractures [3]; [10])?
Answer: 73 ± 44%

Question: And the “Percent Effective Shear Modulus” value (femur fractures [3]; ZnCl2 10.0 mg/kg local, normalized to intact femur, 10 mg/kg)?
Answer: 36.0% and 39 ± 23^∗ Percent

Question: And the “time in which fracture healing resolved” value (femur fractures [3]; ZnCl2 applied directly to the fracture site, instead of average eight to ten weeks in standard rat femur fracture model)?
Answer: four to five weeks

Question: What about the “% Bone” value (femur fractures [4]; 7 Day) of the same compound?
Answer: 18.92 ± 5.97 ^∗ %

Question: What about the “% Cartilage” value (femur fractures [4]; 7 Day) of the same compound?
Answer: 4.64 ± 3.41%

Question: What about the “% Bone” value (femur fractures [4]; 10 Day) of the same compound?
Answer: 21.31 ± 5.40%

Question: What about the “% Cartilage” value (femur fractures [4]; 10 Day) of the same compound?
Answer: 12.79 ± 3.02%

Question: And the “% Bone” value (femur fractures [4]; 21 Day)?
Answer: 24.47 ± 3.53%

Question: And the “% Cartilage” value (femur fractures [4]; 21 Day)?
Answer: 11.57 ± 5.53%
